According to ChEMBL document CHEMBL5518209, “Caltrop-like Small-Molecule Antidotes That Neutralize Unfractionated Heparin and Low-Molecular-Weight Heparin In Vivo” (J Med Chem, 2024):
Values belong to the molecule of their own block, whether it stands above or below them. Activity calls are given as the source filed them. The calls are words filed in the database; no cut-off is given here.

Experiments:
[1] = species on record: Bos taurus; assay: Neutralization of enoxaparin sodium in bovine plasma at 10 to 60 ug/ml by aPTT assay; assay type: cell-free; details: dose 10-60 µg/ml
[2] = species on record: Bos taurus; assay: Neutralization of nadroparin calcium in bovine plasma at 10 to 60 ug/ml by aPTT assay; assay type: cell-free; details: dose 10-60 µg/ml
[3] = species on record: Bos taurus; assay: Neutralization of unfractionated heparin in bovine plasma at 10 to 60 ug/ml by aPTT assay; assay type: cell-free; details: dose 10-60 µg/ml
[4] = species on record: Bos taurus; assay: Neutralization of dalteparin sodium in bovine plasma at 10 to 60 ug/ml by aPTT assay; assay type: cell-free; details: dose 10-60 µg/ml
[5] = species on record: Bos taurus; assay: Neutralization of unfractionated heparin in bovine plasma at 10 to 60 ug/ml by aPTT assay relative to control; assay type: cell-free; details: dose 10-60 µg/ml
[6] = species on record: Homo sapiens; assay: Neutralization of unfractionated heparin in human poor platelet plasma at 10 to 50 ug/ml by aPTT assay relative to control; assay type: cell-free; details: dose 10-50 µg/ml
[7] = species on record: Homo sapiens; assay: Neutralization of enoxaparin sodium in human poor platelet plasma at 10 to 50 ug/ml by aPTT assay relative to control; assay type: cell-free; details: dose 10-50 µg/ml
[8] = species on record: Bos taurus; assay: Neutralization of dalteparin sodium in bovine plasma at 10 to 60 ug/ml by aPTT assay relative to control; assay type: cell-free; details: dose 10-60 µg/ml
[9] = species on record: Bos taurus; assay: Neutralization of enoxaparin sodium in bovine plasma at 10 to 60 ug/ml by aPTT assay relative to control; assay type: cell-free; details: dose 10-60 µg/ml
[10] = Acute toxicity in iv dosed ICR mouse assessed as maximum tolerated dose measured after 7 days; assay type: organism-based; details: in vivo, time 7 day
[11] = species on record: Homo sapiens; assay: Neutralization of dalteparin sodium in human poor platelet plasma at 10 to 50 ug/ml by aPTT assay relative to control; assay type: cell-free; details: dose 10-50 µg/ml
[12] = species on record: Homo sapiens; assay: Neutralization of dalteparin sodium in human poor platelet plasma at 10 to 50 ug/ml by aPTT assay; assay type: cell-free; details: dose 10-50 µg/ml
[13] = Binding affinity to enoxaparin sodium in saline at pH 7.4 assessed as change in enthalpy by ITC analysis
[14] = Binding affinity to dalteparin sodium in saline at pH 7.4 assessed as change in gibbs free energy by ITC analysis
[15] = Binding affinity to unfractionated heparin in saline at pH 7.4 assessed as change in entropy by ITC analysis
[16] = Binding affinity to dalteparin sodium in saline at pH 7.4 assessed as change in enthalpy by ITC analysis
[17] = Binding affinity to enoxaparin sodium in saline at pH 7.4 assessed as change in gibbs free energy by ITC analysis
[18] = Binding affinity to nadroparin calcium in saline at pH 7.4 assessed as change in gibbs free energy by ITC analysis
[19] = Binding affinity to unfractionated heparin in saline at pH 7.4 assessed as change in gibbs free energy by ITC analysis
[20] = test system: Erythrocyte; assay: Hemolytic activity in human red blood cells at 256 ug/ml; assay type: toxicity, cell-based; details: dose 256 µg/ml
[21] = Binding affinity to enoxaparin sodium in saline at pH 7.4 assessed as binding constant by ITC analysis
[22] = test system: Erythrocyte; assay: Hemolytic activity in Sprague-Dawley rat red blood cells at 256 ug/ml; assay type: toxicity, cell-based; details: dose 256 µg/ml
[23] = Binding affinity to nadroparin calcium in saline at pH 7.4 assessed as binding constant by ITC analysis
[24] = Binding affinity to unfractionated heparin in saline at pH 7.4 assessed as binding constant by ITC analysis
[25] = Binding affinity to dalteparin sodium in saline at pH 7.4 assessed as binding constant by ITC analysis
[26] = Blood compatibility in bovine plasma assessed as activated partial thromboplastin time at <23 ug/ml by turbidimetry method; assay type: toxicity, cell-free, Bos taurus; details: cattle, dose < 23 µg/ml
[27] = Binding affinity to nadroparin calcium in saline at pH 7.4 assessed as change in enthalpy by ITC analysis
[28] = Binding affinity to enoxaparin sodium in saline at pH 7.4 assessed as change in entropy by ITC analysis
[29] = Binding affinity to dalteparin sodium in saline at pH 7.4 assessed as change in entropy by ITC analysis
[30] = Binding affinity to nadroparin calcium in saline at pH 7.4 assessed as change in entropy by ITC analysis
[31] = Binding affinity to unfractionated heparin in saline at pH 7.4 assessed as change in enthalpy by ITC analysis
[32] = species on record: Bos taurus; assay: Neutralization of nadroparin calcium in bovine plasma at 10 to 60 ug/ml by aPTT assay relative to control; assay type: cell-free; details: dose 10-60 µg/ml
[33] = species on record: Homo sapiens; assay: Reversal of anticoagulation of unfractionated heparin in human whole blood assessed as minimum effective dose incubated for 5 mins by thromboelastography; assay type: tissue-based
[34] = Blood compatibility in bovine plasma assessed as activated partial thromboplastin time at <54 ug/ml by turbidimetry method; assay type: toxicity, cell-free, Bos taurus; details: cattle, dose < 54 µg/ml
[35] = test system: Erythrocyte; assay: Hemolytic activity in Sprague-Dawley rat red blood cells at 512 ug/ml; assay type: toxicity, cell-based; details: dose 512 µg/ml
[36] = species on record: Homo sapiens; assay: Neutralization of enoxaparin sodium in human poor platelet plasma at 10 to 50 ug/ml by aPTT assay; assay type: cell-free; details: dose 10-50 µg/ml
[37] = species on record: Homo sapiens; assay: Reversal of anticoagulation of dalteparin sodium in human whole blood assessed as minimum effective dose incubated for 5 mins by thromboelastography; assay type: tissue-based
[38] = species on record: Homo sapiens; assay: Reversal of anticoagulation of nadroparin calcium in human whole blood assessed as minimum effective dose incubated for 5 mins by thromboelastography; assay type: tissue-based
[39] = test system: Erythrocyte; assay: Hemolytic activity in human red blood cells at 512 ug/ml; assay type: toxicity, cell-based; details: dose 512 µg/ml
[40] = species on record: Homo sapiens; assay: Reversal of anticoagulation of enoxaparin sodium in human whole blood assessed as minimum effective dose incubated for 5 mins by thromboelastography; assay type: tissue-based

SMILES: NCC(=O)Nc1ccc(-c2cc[n+](Cc3ccc(C(c4ccc(C[n+]5ccc(-c6ccc(NC(=O)CN)cc6)cc5)cc4)(c4ccc(C[n+]5ccc(-c6ccc(NC(=O)CN)cc6)cc5)cc4)c4ccc(C[n+]5ccc(-c6ccc(NC(=O)CN)cc6)cc5)cc4)cc3)cc2)cc1.[Cl-].[Cl-].[Cl-].[Cl-]
Activity [5]: > 98% | Activity [1]: Active | Activity [6]: > 98% | Activity [2]: Active | Activity [7]: > 98% | Activity [8]: > 98% | Activity [9]: > 98% | MTD at 168 h [10]: 8 mg/kg | Activity [3]: Active | Activity [11]: > 98% | Activity [4]: Active

SMILES: NCCOc1cc(-c2cc[n+](Cc3ccc(C(c4ccc(C[n+]5ccc(-c6cc(OCCN)c(OCCN)c(OCCN)c6)cc5)cc4)(c4ccc(C[n+]5ccc(-c6cc(OCCN)c(OCCN)c(OCCN)c6)cc5)cc4)c4ccc(C[n+]5ccc(-c6cc(OCCN)c(OCCN)c(OCCN)c6)cc5)cc4)cc3)cc2)cc(OCCN)c1OCCN.[Cl-].[Cl-].[Cl-].[Cl-]
Activity [12]: Active | deltaH [13]: -5.63 kcal/mol | deltaG [14]: -9.35 kcal/mol | -TdeltaS [15]: -3.64 kcal/mol | deltaH [16]: -4.86 kcal/mol | deltaG [17]: -9.12 kcal/mol | deltaG [18]: -9.19 kcal/mol | deltaG [19]: -8.97 kcal/mol | Activity [20]: Non-Toxic | Ka [21]: 4.85e+06 M⁻¹ | Activity [22]: Non-Toxic | Ka [23]: 5.43e+06 M⁻¹ | Ka [24]: 3.72e+06 M⁻¹ | Ka [25]: 7.09e+06 M⁻¹ | APTT [26]: 23 s | deltaH [27]: -4.83 kcal/mol | MTD at 168 h [10]: 20 mg/kg | -TdeltaS [28]: -3.49 kcal/mol | -TdeltaS [29]: -4.48 kcal/mol | Activity [4]: Active | -TdeltaS [30]: -4.37 kcal/mol | deltaH [31]: -5.33 kcal/mol

SMILES: NCCSc1ccc(-c2cc[n+](Cc3ccc(C(c4ccc(C[n+]5ccc(-c6ccc(SCCN)cc6)cc5)cc4)(c4ccc(C[n+]5ccc(-c6ccc(SCCN)cc6)cc5)cc4)c4ccc(C[n+]5ccc(-c6ccc(SCCN)cc6)cc5)cc4)cc3)cc2)cc1.[Cl-].[Cl-].[Cl-].[Cl-]
Activity [1]: Active | Activity [2]: Active | MTD at 168 h [10]: 8 mg/kg | Activity [3]: Active | Activity [4]: Active

SMILES: NCCCOc1ccc(-c2cc[n+](Cc3ccc(C(c4ccc(C[n+]5ccc(-c6ccc(OCCCN)cc6)cc5)cc4)(c4ccc(C[n+]5ccc(-c6ccc(OCCCN)cc6)cc5)cc4)c4ccc(C[n+]5ccc(-c6ccc(OCCCN)cc6)cc5)cc4)cc3)cc2)cc1.[Cl-].[Cl-].[Cl-].[Cl-]
Activity [32]: > 86% | Activity [5]: > 98% | Activity [1]: Active | Activity [6]: > 98% | Activity [2]: Active | Activity [7]: > 98% | Activity [8]: > 98% | Activity [9]: > 98% | MTD at 168 h [10]: 15 mg/kg | Activity [3]: Active | Activity [11]: > 98% | Activity [4]: Active

SMILES: NCCOc1ccc(-c2cc[n+](Cc3ccc(C(c4ccc(C[n+]5ccc(-c6ccc(OCCN)cc6)cc5)cc4)(c4ccc(C[n+]5ccc(-c6ccc(OCCN)cc6)cc5)cc4)c4ccc(C[n+]5ccc(-c6ccc(OCCN)cc6)cc5)cc4)cc3)cc2)cc1.[Cl-].[Cl-].[Cl-].[Cl-]
MED [33]: 12 µg/mL | deltaH [13]: -5.87 kcal/mol | deltaG [14]: -9.47 kcal/mol | -TdeltaS [15]: -4.43 kcal/mol | deltaH [16]: -4.53 kcal/mol | deltaG [17]: -9.09 kcal/mol | APTT [34]: 23 s | deltaG [18]: -9.15 kcal/mol | deltaG [19]: -9.11 kcal/mol | Activity [35]: Non-Toxic | Ka [21]: 4.61e+06 M⁻¹ | Activity [36]: Active | Ka [23]: 5e+06 M⁻¹ | Activity [1]: Active | Ka [24]: 4.72e+06 M⁻¹ | Ka [25]: 8.77e+06 M⁻¹ | MED [37]: 10 µg/mL | MED [38]: 10 µg/mL | deltaH [27]: -4.38 kcal/mol | MTD at 168 h [10]: 17.5 mg/kg | Activity [39]: Non-Toxic | -TdeltaS [28]: -3.23 kcal/mol | -TdeltaS [29]: -4.94 kcal/mol | -TdeltaS [30]: -4.77 kcal/mol | MED [40]: 10 µg/mL | deltaH [31]: -4.67 kcal/mol

SMILES: c1cc[n+](Cc2ccc(C(c3ccc(C[n+]4ccccc4)cc3)(c3ccc(C[n+]4ccccc4)cc3)c3ccc(C[n+]4ccccc4)cc3)cc2)cc1
Activity [1]: inactive | Activity [2]: inactive | Activity [3]: inactive | Activity [4]: inactive

Further lines, results first:

Activity [1]: inactive | Activity [2]: inactive | Activity [3]: inactive | Activity [4]: inactive
SMILES: Cn1cc[n+](Cc2ccc(C(c3ccc(C[n+]4ccn(C)c4)cc3)(c3ccc(C[n+]4ccn(C)c4)cc3)c3ccc(C[n+]4ccn(C)c4)cc3)cc2)c1

Activity [1]: Active | Activity [2]: Active | Activity [3]: Active | Activity [4]: Active
SMILES: NCCOc1ccc(-n2cc[n+](Cc3ccc(C(c4ccc(C[n+]5ccn(-c6ccc(OCCN)cc6)c5)cc4)(c4ccc(C[n+]5ccn(-c6ccc(OCCN)cc6)c5)cc4)c4ccc(C[n+]5ccn(-c6ccc(OCCN)cc6)c5)cc4)cc3)c2)cc1

Activity [1]: Active | Activity [2]: Active | Activity [3]: Active | Activity [4]: Active
SMILES: NCCOc1ccc2c[n+](Cc3ccc(C(c4ccc(C[n+]5ccc6cc(OCCN)ccc6c5)cc4)(c4ccc(C[n+]5ccc6cc(OCCN)ccc6c5)cc4)c4ccc(C[n+]5ccc6cc(OCCN)ccc6c5)cc4)cc3)ccc2c1

Activity [1]: inactive | Activity [2]: inactive | Activity [3]: inactive | Activity [4]: inactive
SMILES: COc1ccc(-c2cc[n+](Cc3ccc(C(c4ccc(C[n+]5ccc(-c6ccc(OC)cc6)cc5)cc4)(c4ccc(C[n+]5ccc(-c6ccc(OC)cc6)cc5)cc4)c4ccc(C[n+]5ccc(-c6ccc(OC)cc6)cc5)cc4)cc3)cc2)cc1
